Where “and” joins values, the source holds several entries; their conditions need not be identical. Equal entries are not always repeated.
Assays:
[1] = tested on: human glioblastoma cells (U87MG); experiment: PDT efficacy: cell viability (NRU assay) following irradiation; assay type: cell-based
Description: (§1) To assess the effect of AP2-18 (8) on PpIX-induced PDT efficacy, the same three cell types were exposed to equimolar concentrations of ALA, ALA and CP94 (3), MAL, MAL and CP94 (3), and AP2-18 (8) (as described previously) and incubated in the dark for 4 hours. The level of PpIX accumulation was then quantified as before, prior to irradiation with red light (37 J/cm^2; 635±2 nm; Aktilite, Galderma, UK).

[2] = tested on: human epithelial squamous cell carcinoma cells (A431); experiment: Cell viability (NRU assay) after irradiation with varying incubation periods (2, 3 or 4 hours); assay type: cell-based; settings: for cell viability: A431 cells, then red light 37 J/cm^2, NRU assay, individual replicates, hydrochloride
Description: Neutral red is an inert dye actively taken up and stored by viable (living) cells, an action which is unable to be performed by non-viable cells, therefore the level of neutral red taken up is directly proportional to the number of viable cells present following a given exposure. Following uptake of the dye, cells are lysed and the level of neutral red quantified using a plate reader.
After the relevant incubation period, the cells were irradiated with red light (37 J/cm^2; 635±2 nm; Aktilite, Galderma, UK).

[3] = tested on: human epithelial squamous cell carcinoma cells (A431); experiment: PDT efficacy: cell viability (NRU assay) following irradiation; assay type: cell-based
Description: as §1

[4] = tested on: human epithelial squamous cell carcinoma cells (A431); experiment: PpIX fluorescence accumulation; settings: for PpIX accumulation: A431 cells, hydrochloride;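 on all read-outs here: PpIX fluorescence accumulating inside A431 cells, read under dim light to limit photobleaching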
Description: (§2) Briefly, cells were seeded at 2×10^4 cells per well in a 96 well plate and left to adhere overnight. Test solutions were prepared on the day of the assay and applied to the cells. The level of PpIX produced was monitored using a multi-well fluorescent plate reader with a 400 (±30) nm excitation filter and a 645 (±40) nm emission filter, with the level of fluorescence produced being directly proportional to the level of PpIX present. Readings were taken hourly for 6 hours and were conducted under low light conditions to reduce photobleaching of PpIX.
(§3) These were tested alongside equimolar concentrations of ALA, ALA and CP94 (3), MAL, and MAL and CP94 (3), with all test compounds being investigated in human dermal fibroblasts (84BR; FIGS. 2A and 2B), human epithelial squamous cell carcinoma cells (A431; FIGS. 3A and 3B) and human glioblastoma cells (U87MG; FIGS. 4A and 4B).

[5] = tested on: human dermal fibroblasts (84BR); experiment: PDT efficacy: cell viability (NRU assay) following irradiation; settings: 84BR; lowest concentration employed (250 μM)
Description: as §1

[6] = tested on: human glioblastoma cells (U87MG); experiment: PpIX fluorescence accumulation; assay type: cell-based; settings: for PpIX accumulation (fluorescence): hydrochloride
Description: as §2, §3

[7] = tested on: human dermal fibroblasts (84BR); experiment: PpIX fluorescence accumulation; settings: 250-1000 μM, up to 6 hours
Description: as §2, §3

[8] = tested on: human epithelial squamous cell carcinoma cells (A431); experiment: PpIX fluorescence after varying incubation periods (2, 3 or 4 hours); settings: for PpIX fluorescence: A431 cells, individual replicates, hydrochloride
Description: as §2

With CCc1c(O)c(O)cc[n+]1CCOC(=O)CCC(=O)CN.Cl.[Cl-] [AP2-18, 1-(2-(5-amino-4-oxopentanoyloxy)ethyl)-2-ethyl-3,4-dihydroxypyridinium chloride hydrochloride] the “PpIX-induced PDT cell kill” value [1] was “highly effective PpIX-induced PDT cell kill”, the “cell kill on irradiation compared with ALA or MAL” value ([2]; A431, incubation 2, 3 or 4 hours, greatest cytotoxicity at 4 hours) was “statistically significant increases in cell kill” and the cell viability ([2]; 250 μM (each drug), incubation time 2 hours, 250 µM) was 97.7 and 86.79 and 91.73 and 133.2414 and 62.66 and 106.5847 and 64.29 and 96.8 and 131.2186. The cell viability ([2]; 250 μM (each drug), incubation time 3 hours, 250 µM) was 86.93 and 101.2448 and 79.7 and 62.46 and 60.17 and 62.3481 and 33.56 and 37.89 and 49.02 and 32.65 and 47.7341 and 52.75, the cell viability ([2]; 250 μM (each drug), incubation time 4 hours, 250 µM) was 7.088 and 6.582 and 5.929 and 7.34 and 6.99 and 6.52 and 32.03 and 32.79 and 31.11 and the cell viability ([2]; 500 μM (each drug), incubation time 2 hours, 500 µM) was 12.86 and 12.74 and 16.04 and 53.68 and 42.01 and 55.47 and 60.64 and 70.31 and 124.24. For the same compound, the cell viability ([2]; 500 μM (each drug), incubation time 3 hours, 500 µM) was 102.5418 and 125.9215 and 67.1 and 33.04 and 31.45 and 38.59 and 68.88 and 42.19 and 58.38 and 49.61 and 46.3628 and 69.56, the cell viability ([2]; 500 μM (each drug), incubation time 4 hours, 500 µM) was 6.023 and 6.336 and 6.646 and 7.159 and 7.63 and 6.693 and 42.88 and 32.5727 and 25.11 and the cell viability ([2]; 1000 μM (each drug), incubation time 2 hours, 1000 µM) was 96.31 and 83.65 and 82.62 and 98.19 and 107.1891 and 53.91 and 80.39 and 46.21 and 97.83. The cell viability ([2]; 1000 μM (each drug), incubation time 3 hours, 1000 µM) was 92.47 and 93.28 and 87.85 and 39.73 and 38.74 and 37.68 and 45.15 and 47.25 and 41.05 and 50.59 and 59.84 and 82.37, the cell viability ([2]; 1000 μM (each drug), incubation time 4 hours, 1000 µM) was 6.315 and 6.002 and 5.891 and 7.607 and 8.758 and 7.362 and 38.09 and 34.2 and 25.3 and the “reduction in cell viability following PDT” value [3] was “significant reductions in cell viability”. For the same compound, the “PpIX accumulation vs ALA or MAL alone or with CP94” value ([4]; A431, 250-1000 μM, up to 6 hours) was “significantly increase PpIX accumulation”, the PpIX accumulation ([4]; 500 μM (each component), exposure time 1 hour) was 21.33 and 33.67 and 22.67 and 28.67 and 33 and 32 and 29 and the PpIX accumulation ([4]; 1000 μM (each component), exposure time 1 hour) was 41.33 and 38.33 and 49.33 and 33.67 and 34.67 and 36.67 and 49 and 51. The PpIX accumulation ([4]; 1000 μM (each component), exposure time 2 hours) was 58.33 and 69.33 and 58.67 and 63.67 and 78.67 and 97.67 and 93.67, the “reducing cell viability following PDT vs other treatment parameters” value [5] was “significantly better” and the “PpIX accumulation (fluorescence)” value ([6]; 250 μM (combinations: 250 μM each), exposure time 2 hours) was 114.3 and 128.3 and 146.3 and 125.67 and 126.67 and 129.67 and 130.67 and 128.67. For the same compound, the “PpIX accumulation (fluorescence)” value ([6]; 250 μM (combinations: 250 μM each), exposure time 3 hours) was 172 and 199 and 221 and 195 and 196 and 189.33 and 195.33 and 184.33, the “PpIX accumulation (fluorescence)” value ([6]; 500 μM (combinations: 500 μM each), exposure time 3 hours) was 312 and 308 and 267 and 279 and 251.33 and 271.33 and 273.33 and the “PpIX accumulation (fluorescence)” value ([6]; 1000 μM (combinations: 1000 μM each), exposure time 4 hours) was 519 and 469 and 361 and 447 and 468 and 478 and 456 and 499. For the same compound, the “PpIX accumulation vs ALA or MAL alone or with CP94” value ([6]; 250-1000 μM, up to 6 hours) was “significantly increase PpIX accumulation”, the “PpIX accumulation vs ALA or MAL alone or with CP94” value [7] was “significantly increase PpIX accumulation” and the “PpIX vs highest doses of ALA or MAL (1000 μM) at 4 hours” value ([8]; A431, 250 μM, 2 hours incubation) was “produced more PpIX”. For the same compound, the “PpIX levels vs other treatment parameters” value ([8]; A431, 1000 μM, four hours incubation) was “statistically significant higher PpIX levels than any other treatment parameters investigated”, the PpIX fluorescence ([8]; 500 μM (each drug), incubation time 2 hours) was 35.33 and 33.33 and 57.67 and 49.67 and 55.67 and 58.67 (2×) and 69.67 and 58.33 and the PpIX fluorescence ([8]; 500 μM (each drug), incubation time 3 hours) was 59.33 and 67.33 and 62.33 and 114.33 (2×) and 109.33 and 119.67 and 139.67 and 118.67. For the same compound, the PpIX fluorescence ([8]; 500 μM (each drug), incubation time 4 hours) was 71.67 and 82.67 and 73.67 and 137.67 and 136.67 and 140.67 and 151.67 and 177.67 and 146.67, the PpIX fluorescence ([8]; 1000 μM (each drug), incubation time 2 hours) was 58.33 and 69.33 and 58.67 (2×) and 63.67 and 78.67 and 97.67 and 93.67 (2×) and the PpIX fluorescence ([8]; 1000 μM (each drug), incubation time 3 hours) was 96.33 and 100.33 and 116.33 and 117.33 and 114.33 and 118.33 and 144.67 and 180.67 and 182.67. For the same compound, the PpIX fluorescence ([8]; 1000 μM (each drug), incubation time 4 hours) was 113.67 and 119.67 and 140.67 and 145.67 and 139.67 and 141.67 and 177.67 and 221.67 and 225.67.

From patent publication US9346758B2, “Pyridinone compounds for use in photodynamic therapy” (UNIVERSITY OF EXETER, priority 2012, dated 2016)
